We go through eleven molecules from patent US4820723A, “Disubstituted tetrazole leukotriene antagonists and methods for their use thereas” (Eli Lilly and Company, priority 1987, dated 1989).

Each structure is given as a SMILES string.

Test [1] deals with LTD4 evoked ileal contractions. Description: LTD4 antagonism: inhibition of LTD4 evoked contractions of isolated guinea pig ileum. Also noted: species or system Male, Hartley guinea pigs. To be noted: 5 min exposure to drug, 50% inhibition of LTD4 responses, 37° C. Here is the method: (§1) Male, Hartley guinea pigs weighing 200-450 grams were killed by decapitation. A section of terminal ileum was removed, the lumen cleaned, and the tissue divided into 2.5 cm segments. The ilea were mounted in 10 ml tissue baths containing Krebs-bicarbonate solution of the following composition in mmoles/liter: KCl, 4.6; CaCl2 ·2H2 O, 1.2; KH2 PO4, 1.2; MgSO4 ·7H2 O, 1.2; NaCl, 118.2; NaHCO3, 24.8; and dextrose, 10.0. The bath fluid was maintained at 37° C. and aerated with 95 percent oxygen and 5 percent CO2. In addition, the buffer contained 1×10^-6 M atropine to reduce ileal spontaneous activity. Isometric measurements were made with a Grass FT03C force-displacement transducer and recorded on a Grass polygraph as change in grams of force. A passive force of 0.5 g. was applied to the tissues. After an appropriate equilibration period, single submaximal control responses to pure LTD4 were obtained. Following a five minute exposure of the ileum to an experimental drug, the control concentration of LTD4 was added to the tissue bath. The response of the ileum to LTD4 in the presence of the drug was compared to the response in the absence of the drug. Various degrees of LTD4 antagonism were obtained using 2-4 different concentrations of an experimental compound on a single ileum.
(§2) Percent inhibition of LTD4 evoked ileal contractions

Test [2] deals with T1, LTD4 in guinea pig ileum and trachea (Cavia porcellus, UniProt Q2NNR5).
T1 construct: from tissue; host or cells: isolated ileum and trachea of guinea pigs (male Hartley stated for the ileum test)
T1 sequence (Q2NNR5 1-340): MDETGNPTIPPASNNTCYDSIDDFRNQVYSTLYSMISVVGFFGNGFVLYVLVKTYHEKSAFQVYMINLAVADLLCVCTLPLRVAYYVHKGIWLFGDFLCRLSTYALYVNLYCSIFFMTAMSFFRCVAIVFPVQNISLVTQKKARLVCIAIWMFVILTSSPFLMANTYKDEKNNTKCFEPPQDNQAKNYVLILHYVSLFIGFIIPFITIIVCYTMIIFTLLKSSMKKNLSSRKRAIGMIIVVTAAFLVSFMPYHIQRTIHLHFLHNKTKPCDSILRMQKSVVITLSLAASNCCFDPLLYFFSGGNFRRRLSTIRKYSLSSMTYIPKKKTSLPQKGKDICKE
Briefly: cumulative concentration-response curves to LTD4 in guinea pig ileum and trachea (KB by method of Furchgott). To be noted: negative log of the dissociation KB, 30 minute incubation, LTD4 agonist. Here is the method:
as §1
For some of the drugs in this series a more detailed analysis of LTD4 antagonism was made. In these experiments, cumulative concentration-response curves were obtained to LTD4 in guinea pig ileum and trachea. This was followed by a 30 minute incubation with various concentrations of the experimental drug. The concentration response curve to LTD4 was then repeated in the presence of an antagonist. Only one concentration of antagonist was used on a single tissue. KB values were calculated by the method of Furchgott [Ann. N.Y. Acad. Sci., 139, 553 (1967)] using the following equation. [formula]
Dose effect ratio refers to the concentration of agonist required to elicit 50 percent of the maximal response (ED50) in the presence of the antagonist divided by the ED50 in the absence of the antagonist. Calculations were performed with the aid of a computer and a digital plotter. The negative log of the dissociation KB ("pKB ") is given for some of the compounds in the table below.
as §2

For test [3], the system named is pressor response to leukotriene D4. Description: decrease of LTD4 pressor response in pithed rats. Type of test: in vivo, Adult male Sprague-Dawley rats. To be noted: Rattus norvegicus, iv, 0.25 h, 15 minutes prior to leukotriene D4 challenge (10 μg/kg, i.v.); dose to decrease pressor response by 50%. Here is the method:
A further measure of the final product's activity is their ability to decrease the pressor response in pithed rats that are challenged by LTD4. This activity is measured by the following standard procedure
Adult male Sprague-Dawley rats, weighting approximately 300-500 grams, are anesthetized with pentobarbital sodium (60 mg/kg, i.p.). The trachea is cannulated and the rats are ventilated with room air delivered from a rodent respirator (Harvard, model 680; tidal volume of 1 ml/100 grams body weight, 60 cycles/minute). Rats are pithed by passing a steel rod through the right orbit and down the entire length of the spinal column. The rod is left in position for the duration of the experiment. Pulsatile arterial blood pressure is measured from a cannulated carotid artery using a Stathamtransducer (P231D). Mean arterial blood pressure is calculated as diastolic pressure plus 1/3 pulse pressure. Drug solutions are administered i.v. through a catheter placed in a jugular vein. Arterial blood pressure is recorded on a multichannel oscillograph (Beckman, model R511A).
Groups of pithed rats, usually 4-6/group, are pretreated i.v. with a dose of test compound or vehicle (control experiments) 15 minutes prior to leukotriene D4 challenge (10 μg/kg, i.v.). Usually 3-4 doses of the test compound are evaluated in a given study. Blood pressure responses to leukotriene D4 in control and drug-treated pithed rats are then compared and an ED50 dose of antagonist is estimated. ED50 (95% confidence interval) is the calculated dose of antagonist (mg/kg, i.v.) required to decrease the pressor response to leukotriene D4 by 50%.
The ED50 values of selected final products of Formula I are set forth below in Table 2.

One may read the pKB as the KB on a negative log10 scale, so that one unit is a factor of ten. A higher pKB goes with a small KB. As a reminder, the ED50 is the dose at which the effect has come halfway, by size or by number of responders. On to `CCCc1c(OCCCCc2nnn(Cc3ccc(C(=O)O)cc3)n2)ccc(C(C)=O)c1O` [Example 31, 5-[4-(4-Acetyl-3-hydroxy-2-propylphenoxy)butyl]-2H-tetrazole-2-(α-methylene-p-benzoic acid)], for which, in test [1], the “-log IC50” value came out at 7.75. Besides, the pKB in test [2] is listed as 7.190. The molecule further had a 50% effective dose (ED50) in test [3] of 6.5 mg/kg.

On to `CCCc1c(OCCCCc2nnn(CCCCC(=O)O)n2)ccc(C(C)=O)c1O` [Example 48, 5-[4-(4-Acetyl-3-hydroxy-2-propylphenoxy)butyl]-2H-tetrazol-2-(5-pentanoic acid)], for which the “-log IC50” value in test [1] worked out at 7.15. In test [3], this molecule came in with an ED50 of 9.9 mg/kg.

For `CCCc1c(OCCCCCCc2nnnn2CCCC(=O)O)ccc(C(C)=O)c1O` [Example 50], in test [1], the “-log IC50” value is listed as 6.54. Besides, the median effective dose (ED50) in test [3] was found to be 17.3 mg/kg.

Consider `CCCc1c(OCCCCCCc2nnn(CCCC(=O)O)n2)ccc(C(C)=O)c1O` [Example 51, 5-[6-(4-Acetyl-3-hydroxy-2-(n-propyl)phenoxy)hexyl]-2H-tetrazole-2-[4-butanoic acid]], for which the “-log IC50” value in test [1] is reported as 6.75. Further, it took a dose of 18.3 mg/kg to reach the 50% effect level in test [3] (ED50).

Regarding `CCCc1c(OCCCCc2nnn(Cc3ccc(Cc4nn[nH]n4)cc3)n2)ccc(C(C)=O)c1O` [Example 54], the pKB in test [2] is 7.10. It took a dose of 22.4 mg/kg to reach the 50% effect level in test [3] (ED50).

In test [2], `CCCc1c(OCCCCc2nnn(Cc3ccc(C(=O)O)c(O)c3)n2)ccc(C(C)=O)c1O` [Example 55, 5-[4-(4-Acetyl-3-hydroxyl-2-(n-propyl)phenoxy)-butyl]-2H-tetrahydrazole-2-[4-(methylene)salicylic acid]] showed a pKB of 6.89. Also, it took a dose of 22 mg/kg to reach the 50% effect level in test [3] (ED50).

In test [2], `CCCc1c(OCCCCc2nnnn2Cc2ccc(C(=O)O)cc2O)ccc(C(C)=O)c1O` [Example 56, 5-[4-(4-Acetyl-3-hydroxy-2-(n-propyl)phenoxy)butyl]-1H-tetrazole-1-[(4-methylene)-3-hydroxybenzoic acid]] came in with a negative logarithm of the KB (pKB) of 6.40.

The molecule `CCCc1c(OCCCCc2nnn(Cc3ccc(C(=O)O)cc3O)n2)ccc(C(C)=O)c1O` [Example 57, 5-[4-(4-Acetyl-3-hydroxy-2-(n-propyl)phenoxy)butyl]-2H-tetrazole-2-[4-(methylene)3-hydroxybenzoic acid]] returned a pKB in test [2] of 7.06. This molecule showed a 50% effective dose (ED50) in test [3] of 19.8 mg/kg.

As to `CCCc1c(Oc2ccc(-c3nnn(Cc4ccc(C(=O)O)cc4)n3)cc2)ccc(C(C)=O)c1O` [Example 58, 5-[Para-(4-Acetyl-3-hydroxy-2-(n-propyl)phenoxy)phenyl]-2H-tetrazole-2-[para(methylene)benzoic acid]], the negative-log KB (pKB) in test [2] is 7.00.

Take `CCCc1c(OCCCCCCc2nnnn2CC(=O)O)ccc(C(C)=O)c1O` [F]: the “-log IC50” value in test [1] came out at 6.59. Besides, the 50% effective dose (ED50) in test [3] came to 27.1 mg/kg.

For `CCCc1c(OCCCCCc2nnn(CC(=O)O)n2)ccc(C(C)=O)c1O` [G], the “-log IC50” value in test [1] stood at 6.3. Moreover, the 50% effective dose (ED50) in test [3] is greater than 30 mg/kg.
